Test results: patent US20240117334A1, “FACTOR B PROTEASES” (Vertex Pharmaceuticals Incorporated, priority 2021, published 2024)

Columns and labels:
Type in all cases: biochemical
[1] = test system: Human Factor B digests in human Factor B Depleted Serum, rabbit red blood cells; assay: Hemolysis assay with Factor B digests (KLK5 and chymase-based protease); conditions: 4 μM Factor B digested 1 hour at 37° C., 15% serum
Experimental: FIG. 7A depicts a graph showing hemolysis inhibition by KLK5 and compared with a chymase-based engineered protease C22S/F173Y/D175N/A226R. All references in this Example to engineered proteases are depicted in chymotrypsin numbering. The chymotrypsin numbering key for the modified protease domains of engineered proteases are found in Tables 2, 4, and 6 for uPA, MTSP-1, and chymase, respectively. Briefly, a digestion reaction was prepared with 4.0 μM of Human Factor B (Complement Technologies) in 20 μL buffer (50 mM Tris pH 7.4/50 mM NaCl/0.01% Tween 20). Different concentration of the KLK5 protease or the chymase-based engineered protease C22S/F173Y/D175N/A226R (400, 200, 100, 50, 25, 12.5, 6.25, 3.125, 1.56, 0.78, and 0.39 with a control at 0.0 nM) were added to 4 μM of Factor B and incubated for 1 hour at 37° C. After digestion, 6 μL of the reaction was evaluated in a hemolysis assay.
The Factor B digestion reactions were diluted in 20 μL of GVB (Complement Technologies), 10 mM MgCl2 and 8 mM EGTA (GVB/Mg/EGTA). 45 μL of human Factor B Depleted Serum (Complement Technologies) was then added to 5 μL of human Factor B digests to obtain a final volume of 90% serum. In parallel, 50 μL of rabbit red blood cells (Colorado Serum Co.) were diluted into 950 μL of GVB/Mg/EGTA and mixed gently. […] The plate absorbance was read at 415 nm with a spectrophotometer and the EC50 was calculated.

Human Factor B [2] = target: T1, Human Factor B (Homo sapiens, UniProt P00751); assay: Factor B cleavage by KLK5, Factor B ELISA; conditions: 4 μM Factor B, 1 hour at 37° C., two stocks
Experimental: FIG. 7B depicts a graph showing Factor B cleavage with KLK5 and a chymase-based engineered protease C22S/F173Y/D175N/A226R. Briefly, A digestion reaction is prepared with 4.0 uM of Human Factor B (Complement Technologies) in 20 μL buffer (50 mM Tris pH 7.4/50 mM NaCl/0.01% Tween 20). Different concentrations of KLK5 (400, 200, 100, 50, 25, 12.5, 6.25, 3.125, 1.56, 0.78, and 0.39 with a control at 0.0 nM) are added to 4 μM of factor B and incubated for 1 hour at 37° C. After digestion, 15 μL of the reaction is transferred to a 96 well plate with 1.5 μL of 0.2N HCL. After quenching, the reactions are prepared factor B ELISA.
A Factor B standard curve is made with 800, 533.3, 355.5, 237.0, 158.0, 105.3, 70.2, 46.8, 31.2, 20.8, 0.0 pM in 1% BSA-PBST. A 384 well plate was coated with the monoclonal antibody against human Factor Ba (#A225, Quidel) at 2 μg/mL in carbonate buffer (25 μL/well). […]
The biotinylated monoclonal antibody against human Factor Bb (Quidel) was then added at 0.125 μg/ml to detect the bound Factor B. Streptavidin-HRP was then diluted at 1:200 in blocking buffer (25 μL/well) and the plate was agitated for 30 minutes at room temperature. The plate was developed with ELISABright, (50 μL/well) for 1 minute at room temperature and read in the EnVision plate reader. […]

Human Factor B [3] = target: T1, Human Factor B; assay: Mass spectrometry identification of Factor B cleavage sites
Experimental: FIG. 9 depicts mass spectrometry (MS) data identifying the cleavage site at 234 Arg within the QQKR/KIV (SEQ ID NO: 9) cleavage site of Factor B by KLK5, and identifying the cleavage site at ^221Asp within the EGVDAE (SEQ ID NO: 13) cleavage site of Factor B by the chymase-based engineered protease C22S/A226R. Briefly, human Factor B (Comptech) was incubated at 2 μM with different concentration of Kallikrein 5 (KLK5, R&D Systems) or the chymase-based engineered protease C22S/A226R at 10 nM or 100 pM for 10 minutes to 1 hour at 37° C. in 20 mM Tris pH 8 buffer with 16-0 or 18-0 water. The reaction was quenched with 20 μM of inhibitor FFR-CMK for 30 minutes at room temperature. Half of the sample was further treated with Rapidgest/chymotrypsin and adjusted to pH 3 by the addition of […] 1% TFA. TCEP (100 mM final concentration) was then added to reduce disulfides for 30 minutes at 37° C. […] of each sample was bound to a Ziptip (Millipore) and eluted with […] 80% ACN-0.1% TFA. After drying in a Speedvac, the samples were re-dissolved in […] of 30% ACN-0.05% TFA. 0.35 mL of the sample was loaded with 0.45 mL of CHCA matrix (10 mg/mL) onto an OptiPlate, and analyzed by MALDI-MS (ABI 4700) in both linear (m/z 2-22k) and reflector (m/z 1500-5400) mode. The tandem MS was carried out on peptides of interest when possible. Two large peptide fragments were detected at […] and 59 kDa. In summary, 100 pM KLK5 cleaves at 1 of 38 Arg in a 10 minute reaction and in 4 out of 38 Arg in a 60 minute reaction (Arg175, Arg193, Arg730 and Arg739). At 10 nM, cleavage was detected in […] in 10 and 60 minute reactions (Arg50, Arg74, Arg94, Arg175, Arg182, Arg193, Arg202, Arg203, Arg259, Arg381, Arg415, Arg658, Arg679, Arg708, Arg710, Arg730, Arg739). The earliest cleavage event was at Arg 730.
The reconstructed ion chromatograms shown in FIG. 9 are of reaction products from Kallikrein-5 (“KLK”), the chymase-based engineered protease C22S/A226R (“chymase-based”), and plasma derived-Factor B (“Fb control”). […] In contrast, KLK5 cleaves Factor B at ^234 Arg (peak at 4.69 minutes, MW 61437).

[4] = test system: 20% Normal Human Serum, rabbit red blood cells; assay: Standard Alternative Pathway (AP) RBC hemolysis assay; parameters: unit of the concentration uncertain
Experimental: (§1) Percent lysis was calculated using the following formula: [(OD415 of sample−OD415 EDTA negative control)/(OD415 saline positive control-OD415 EDTA)*100 ] (Table 17A and Table 17B). IC50s were calculated by nonlinear regression (Prism 9, log(inhibitor,bv) vs. response-4 parameter variable slope model) (Table 18A and Table 18B).

[5] = test system: human Factor B depleted sera with Factor B, rabbit red blood cells; assay: Enhanced AP RBC hemolysis assay (Factor B depleted sera with Factor B spiked back); parameters: unit of the concentration uncertain
Experimental: as §1

[6] = concentration 0.33 (unit uncertain)
[7] = concentration 1 (unit uncertain)
[8] = concentration 3 (unit uncertain)
[9] = concentration 10 (unit uncertain)

T1 sequence (P00751 26-764): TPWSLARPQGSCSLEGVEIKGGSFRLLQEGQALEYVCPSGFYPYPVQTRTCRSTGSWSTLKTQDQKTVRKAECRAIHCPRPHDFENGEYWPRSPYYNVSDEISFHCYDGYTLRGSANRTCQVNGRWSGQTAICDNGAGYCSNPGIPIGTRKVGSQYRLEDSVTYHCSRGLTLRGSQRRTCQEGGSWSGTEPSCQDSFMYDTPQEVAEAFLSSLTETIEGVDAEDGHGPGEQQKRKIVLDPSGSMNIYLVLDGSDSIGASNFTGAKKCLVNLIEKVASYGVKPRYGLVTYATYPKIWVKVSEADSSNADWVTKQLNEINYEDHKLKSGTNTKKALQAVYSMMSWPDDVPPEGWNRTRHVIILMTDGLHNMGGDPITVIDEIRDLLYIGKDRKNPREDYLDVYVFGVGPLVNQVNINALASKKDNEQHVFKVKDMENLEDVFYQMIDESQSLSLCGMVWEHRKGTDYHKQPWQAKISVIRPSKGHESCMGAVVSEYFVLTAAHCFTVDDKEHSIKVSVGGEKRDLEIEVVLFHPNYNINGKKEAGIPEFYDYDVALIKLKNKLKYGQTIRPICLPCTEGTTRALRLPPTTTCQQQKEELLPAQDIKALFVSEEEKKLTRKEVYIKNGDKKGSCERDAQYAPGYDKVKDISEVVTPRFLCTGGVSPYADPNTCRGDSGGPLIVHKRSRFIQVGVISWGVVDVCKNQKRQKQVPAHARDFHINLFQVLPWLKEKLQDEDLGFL

Row | cleavage of Factor B (ELISA) (Human Factor B [2]) | earliest cleavage event (Human Factor B [3]) | remaining intact Factor B (reconstructed ion chromatogram) (Human Factor B [3]) | number of Arg of Factor B cleaved (Human Factor B [3]; 100 pM, 10 minute reaction) | number of Arg of Factor B cleaved (Human Factor B [3]; 100 pM, 60 minute reaction) | number of Arg of Factor B cleaved (Human Factor B [3]; 10 nM, 10 and 60 minute reactions) | Compound | inhibition of hemolysis [1] | % Hemolysis [4, 6] [%] | % Hemolysis [4, 7] [%] | % Hemolysis [4, 8] [%] | % Hemolysis [4, 9] [%] | % Hemolysis [5, 6] [%] | % Hemolysis [5, 7] [%] | % Hemolysis [5, 8] [%] | % Hemolysis [5, 9] [%]
1 | effective in cleavage Factor B | Arg 730 | No remaining intact Factor B | 1 of 38 | 4 out of 38 | 18 of 38 | KLK5: Kallikrein-related peptidase 5 protease (R&D Systems) | effective in inhibition of hemolysis |  |  |  |  |  |  |  | 
2 |  |  |  |  |  |  | CCO[C@H]1CCN(Cc2c(OC)cc(C)c3[nH]ccc23)[C@H](c2ccc(C(=O)O)cc2)C1 [LNP023] |  | 0 | 1.16 | 0 | 0 | 102.50 | 108.48 | 33.94 | 0
